Test results taken from ChEMBL document CHEMBL5674860, “Optimized Dual-Glo Assay to identify co-culture-induced drug vulnerabilities in 3D CRC models” (2024).

Tests used:
Format in all cases: functional, Homo sapiens
Parameters in all cases: dose or concentration left out as unconfirmed
[1] = system: Colon cancer organoid; assay: Optimized Dual-Glo assay to identify co-culture induced drug vulnerabilities using donated chemical probes and chemogenomics kinase set in O14 CRC organoid and F14 CAF mono and co-culture. […] Cell viability is reported both mono and co-culture models.
[2] = system: Colon cancer organoid; assay: Optimized Dual-Glo assay to identify co-culture induced drug vulnerabilities using donated chemical probes and chemogenomics kinase set in O06 CRC organoid and F06 CAF mono and co-culture. […] Cell viability is reported both mono and co-culture models.
[3] = system: Colon cancer organoid; assay: Optimized Dual-Glo assay to identify co-culture induced drug vulnerabilities using donated chemical probes and chemogenomics kinase set in O20 CRC organoid and F20 CAF mono and co-culture. […] Cell viability is reported both mono and co-culture models.
[4] = Culture type Co-Culture, Transduced with Lucferase2-P2A-EGFP lentivirus
[5] = Culture type Co-Culture, Transduced with Renilla-dsRed lentivirus
[6] = Culture type Mono-Culture, Transduced with Lucferase2-P2A-EGFP lentivirus
[7] = Culture type Mono-Culture, Transduced with Renilla-dsRed lentivirus

SMILES	Cell Viability [1, 4] [%]	Cell Viability [1, 5] [%]	Cell Viability [1, 6] [%]	Cell Viability [1, 7] [%]	Cell Viability [2, 4] [%]	Cell Viability [2, 5] [%]	Cell Viability [2, 6] [%]	Cell Viability [2, 7] [%]	Cell Viability [3, 4] [%]	Cell Viability [3, 5] [%]	Cell Viability [3, 6] [%]	Cell Viability [3, 7] [%]
Nc1ccc(C(=O)Nc2cccc(-c3nc(N4CCOCC4)c4oc5ncccc5c4n3)c2)cn1	67.7704	105.191	42.3601	61.5192	78.745	81.5262	28.4733	93.3288	142.389	75.1771	60.1963	81.7819
CC(=O)Nc1nc(CN2CCC[C@H](Cc3cc(C)nc(C)c3)C2)cs1 [JNJ-73924149]	81.3438	100.385	108.387	92.0646	110.779	72.9092	164.947	124.842	90.3874	105.251	100.726	118.221
CCCc1cc(C)[nH]c(=O)c1CNC(=O)c1cc(-c2ccc(N3CCN(C(C)C)CC3)nc2)cc2c1cnn2C(C)C	66.7096	94.8471	83.1931	95.0739	81.1391	118.175	116.95	88.1686	58.7881	157.842	61.2858	75.3301
CC(=O)NCC(=O)N1[C@@H]2CC[C@H]1c1ccc(Nc3ncc(C(F)(F)F)c(NC4CCC4)n3)cc12 [PF-03814735]	21.4424	92.7993	23.2786	69.2613	12.5382	132.747	7.137	42.3421	4.585	155.761	7.993	63.4074
O=C(NC[C@@H]1[C@H]2CN(C(=O)OCc3cc(C(F)(F)F)cc(C(F)(F)F)c3)C[C@@H]12)c1ccc2[nH]nnc2c1 [BI 2545]	75.1961	105.32	137.829	80.7794	124.688	144.467	99.0945	89.0013	135.058	115.933	103.58	122.062
COc1cc(-c2cn([C@H]3CCc4c(F)cccc4N(CC(F)(F)F)C3=O)nn2)ccc1-n1cnc(C)c1	75.4426	112.422	84.8132	97.4006	117.399	118.336	87.9333	111.054	119.382	109.286	102.589	90.6954
Cc1cc2c(-c3ccco3)cnc(N[C@@H]3CCN(C)C[C@H]3C(=O)NC3CCCCC3)c2[nH]c1=O [GSK789]	80.165	245.195	48.5278	143.743	76.5976	134.369	59.8107	179.691	33.945	125.83	39.8308	103.931
CCOc1cc(N2CCC(O)CC2)ccc1Nc1ncc2c(n1)N(C1CCCC1)CCC(=O)N2C	86.8191	245.351	52.078	149.574	80.3618	151.464	49.5621	184.932	51.9112	144.517	36.2832	127.288
Cl.Cn1cncc1[C@](O)(COc1ccc(C#N)cc1-c1ccc(OC(F)(F)F)cc1)c1ccc(C#N)cc1	26.9606	99.4366	53.0011	61.9663	31.9269	197.169	11.7395	58.9843	15.3114	150.357	17.164	65.8997
COc1ccc(Cn2ccc3ccc(C(=O)NO)cc32)cc1	71.3405	118.85	119.497	102.466	111.578	129.424	126.919	118.855	176.611	111.53	111.23	102.771
COc1cc(OC)cc(-c2noc(N3CCN(C)C4(CCN(c5ccccc5)CC4)C3)n2)c1	94.7889	110.973	95.4006	91.5093	67.7845	115.277	89.2845	104.733	90.0996	110.491	105.262	93.4153
Cn1cnc2c(F)c(Nc3ccc(Br)cc3Cl)c(C(=O)NOCCO)cc21 [SELUMETINIB]	41.0506	90.7653	35.0637	76.2393	107.697	90.3962	52.8036	90.0191	54.0546	152.417	80.7355	77.3788
COc1cc2ncn(-c3cc(OCc4ccccc4C(F)(F)F)c(C(N)=O)s3)c2cc1OC [GW843682X]	8.715	209.484	23.2418	105.344	4.781	182.458	3.81	121.646	89.2195	152.214	57.1216	108.759
Cl.Cl.c1ccc([C@@H]2C[C@H]2NC2CCNCC2)cc1	82.3558	127.479	88.7328	113.061	78.4875	97.0217	85.9094	106.355	42.5951	97.3617	75.8314	98.3245
CCOc1cc(N2CCC(O)CC2)ccc1Nc1ncc2c(n1)N(C)c1ccccc1C(=O)N2C	76.0009	186.577	84.1713	122.992	85.6087	128.987	73.5863	165.88	81.7751	117.331	65.2469	115.42
CC1=C(C#N)C(c2ccc3c(c2)c(NC(=O)c2ccccc2C)nn3C)C(C#N)=C(C)N1 [BAY-974]	102.224	90.7163	99.5288	100.218	97.6295	94.9804	90.396	95.4639	105.235	128.576	108.1	107.642
CCC(=O)N[C@H]1CC[C@@H](C(=O)N(C)c2ccc(-c3nc4ccccc4o3)cc2)C1 [BI 99179]	36.4327	197.223	76.5692	108.528	7.905	448.988	13.2074	86.3048	33.9891	149.12	57.7768	75.3735
CN(C)C(=O)Cn1cc(-c2ccc(-c3cncc4ccccc34)cc2)cn1	86.7541	14.5396	75.1396	23.2323	83.3121	47.4852	74.4895	24.5354	97.1634	25.8647	131.343	32.5119
